One block for each molecule: values may come before it.
Assays:
[1] = test system: Ab 927
[2] = test system: Ab 927; test: Radioimmunoassay cross-reactivity / displacement of cholylglycyl-125I-histamine tracer (Specificity of Tracer and Antibody)
[3] = test system: antibodies from rabbits (anti BSA-cholylglycine conjugate), Ab 927; test: Antibody titer curves using cholylglycyl-125I-histamine (or 3H-cholylglycine) tracer; assay type: binding, rabbit
Experimental: Young adult male New Zealand white rabbits were immunized at multiple sites on the back at bi-weekly intervals using 1.0 ml of BSA-cholylglycine conjugate (50 μg) emulsified with an equal volume of Freund's adjuvant. Serum was harvested every 2 weeks beginning one month after the initial immunization. […] 1 mg bovine gamma globulin was included in each tube. […] The supernate (bound) was decanted into another tube and both the charcoal (free) and supernate (bound) tubes were counted in a γ-spectrometer (Elscint). Results were expressed as the bound/free (B/F) ratio. A standard curve was constructed and unknowns were quantitated from a standard curve run with each assay. Antibodies from six different rabbits were produced and tested.

Molecule: C[C@H](CCC(=O)O)[C@H]1CC[C@H]2[C@@H]3CC[C@@H]4C[C@H](O)CC[C@]4(C)[C@H]3CC[C@]12C [Lithocholic acid]
- activity [1]: 2%

Molecule: C[C@H](CCC(=O)NCC(=O)NCCc1c[nH]cn1)[C@H]1CC[C@H]2[C@@H]3[C@H](O)C[C@@H]4C[C@H](O)CC[C@]4(C)[C@H]3C[C@H](O)[C@]12C [cholylglycylhistamine]
- Amount required for displacement relative to other bile salts (fold less) ([2]; FIG. 4, less than other bile salts): approximately 10 fold
- affinity (in words) ([2]; explanation for sensitivity not rising with titer): greater affinity

- Non-specific binding ([3]; CPM in supernate without antibody, unchanged as long as 6 months after iodination): 2-4%
- binding of tracer ([3]; corresponds to B/F 14.2, 1:100 dilution): 93%
Molecule: Cholylglycyl-^125 I-histamine [cholylglycyl-125I-histamine]
- initial B/F (bound/free ratio) ([3]; 1:100 dilution, approximately 3000 CPM cholylglycyl-125I-histamine, four antibodies): 10.5 to 14.2
- specificity (in words) [2]: maintain a specificity toward the conjugated bile salts, particularly cholate and chenodeoxycholate conjugates

— patent US4207308A, “Process for purifying iodinated bile acid conjugates” (priority 1977, dated 1980)
